Experimental data reported in patent US20190225650A1, “PEPTIDOMIMETIC MACROCYCLES AND USE THEREOF IN REGULATING HIF1ALPHA” (AILERON THERAPEUTICS, INC., priority 2013, published 2019).
Bridge positions count the residues as written; N and C are the ends. Square brackets hold non-standard residues; d marks the D form. Peptide text beside a SMILES is read from it. R8 = C=CCCCCCC[C@@](C)(N)C(=O)O; S5 = C=CCCC[C@](C)(N)C(=O)O; Nle = CCCC[C@H](N)C(=O)O; Dap = NC[C@H](N)C(=O)O

Tested on: HRE-bla ME-180 cells
Assay: Reporter gene assay (HRE-bla ME-180 HIF reporter, GeneBLAzer)
Type: cell-based, human
Settings: for EC50: 24 hour normoxia
In short: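 A FRET β-lactamase readout of HIF transcription was used. After compound treatment in 0.3% DMSO/media under normoxic conditions, 20 μl of 6× LiveBLAzer-FRET B/G (CCF4-AM) substrate was added. Plates sat 3 hr at room temperature in the dark and were read at 409 Ex/460Em and 409Ex/530Em on a Synergy 2. Inhibition was compared against DMSO vehicle controls, with chetomin as positive control.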

| SMILES | EC50 | 18 h Avg % max inhibition at top conc (HIF Rptr-24 hrs normoxia) (μM) |
| --- | --- | --- |
| CC[C@H](C)[C@H](NC(=O)[C@H](CCCNC(=N)N)NC(=O)[C@H](CC(=O)O)NC(=O)[C@H](CC(C)C)NC(=O)CNC(=O)[C@H](CCSC)NC(=O)[C@H](CCC(=O)O)NC(=O)[C@@H](NC(=O)[C@@H](NC(=O)[C@H](CC(C)C)NC(=O)[C@H](CO)NC(=O)[C@]1(C)CCCC=CCCC[C@](C)(NC(=O)[C@H](CC(=O)O)NC(=O)[C@@H](NC(=O)[C@H](Cc2ccccc2)NC(C)=O)[C@@H](C)CC)C(=O)N[C@@H](CCC(=O)O)C(=O)N[C@@H](C(C)C)C(=O)N[C@@H](CC(C)C)C(=O)N1)C(C)C)[C@@H](C)CC)C(=O)N[C@@H](CCCCN)C(=O)N[C@@H](CCC(=O)O)C(=O)N[C@@H](CC(C)C)C(=O)N1CCC[C@H]1C(=O)N[C@@H](CCC(=O)O)C(=O)N[C@@H](CC(C)C)C(=O)N[C@@H](Cc1c[nH]c2ccccc12)C(=O)N[C@@H](CC(C)C)C(N)=O [SP-76] (Ac-FID[S5]EVL[S5]SLVIEMGLDRIKELPELWL-NH2; staple 4-8) | > 30 µM | + (<10: +) |
| CC[C@H](C)[C@H](NC(=O)[C@H](Cc1ccccc1)NC(C)=O)C(=O)N[C@@H](CC(=O)O)C(=O)N[C@@H](CCC(=O)O)C(=O)N[C@]1(C)CCCCCCC=CCCC[C@@](C)(C(=O)N[C@@H](CCC(=O)O)C(=O)N[C@@H](CCSC)C(=O)NCC(=O)N[C@@H](CC(C)C)C(=O)N[C@@H](CC(=O)O)C(=O)N[C@@H](CCCNC(=N)N)C(=O)N[C@H](C(=O)N[C@@H](CCCCN)C(=O)N[C@@H](CCC(=O)O)C(=O)N[C@@H](CC(C)C)C(=O)N2CCC[C@H]2C(=O)N[C@@H](CCC(=O)O)C(=O)N[C@@H](CC(C)C)C(=O)N[C@@H](Cc2c[nH]c3ccccc23)C(=O)N[C@@H](CC(C)C)C(N)=O)[C@@H](C)CC)NC(=O)[C@H](C(C)C)NC(=O)[C@H](CC(C)C)NC(=O)[C@H](CO)NC(=O)[C@H](CCSC)NC(=O)[C@H](CC(C)C)NC(=O)[C@H](C(C)C)NC1=O [SP-82] (Ac-FIDE[R8]VLMSLV[S5]EMGLDRIKELPELWL-NH2; staple 5-12) | > 30 µM | + (<10: +) |
| CC[C@H](C)[C@H](NC(=O)[C@H](Cc1ccccc1)NC(C)=O)C(=O)N[C@@H](CC(=O)O)C(=O)N[C@@H](CCC(=O)O)C(=O)N[C@@H](CCC(=O)O)C(=O)N[C@H](C(=O)N[C@]1(C)CCCCCCC=CCCC[C@@](C)(C(=O)NCC(=O)N[C@@H](CC(C)C)C(=O)N[C@@H](CC(=O)O)C(=O)N[C@@H](CCCNC(=N)N)C(=O)N[C@H](C(=O)N[C@@H](CCCCN)C(=O)N[C@@H](CCC(=O)O)C(=O)N[C@@H](CC(C)C)C(=O)N2CCC[C@H]2C(=O)N[C@@H](CCC(=O)O)C(=O)N[C@@H](CC(C)C)C(=O)N[C@@H](Cc2c[nH]c3ccccc23)C(=O)N[C@@H](CC(C)C)C(N)=O)[C@@H](C)CC)NC(=O)[C@H](CCC(=O)O)NC(=O)[C@H]([C@@H](C)CC)NC(=O)[C@H](C(C)C)NC(=O)[C@H](CC(C)C)NC(=O)[C@H](CO)NC(=O)[C@H](CCSC)NC1=O)C(C)C [SP-84] (Ac-FIDEEV[R8]MSLVIE[S5]GLDRIKELPELWL-NH2; staple 7-14) | > 30 µM | + (<10: +) |
| CC[C@H](C)[C@H](NC(C)=O)C(=O)N[C@@H](CC(=O)O)C(=O)N[C@@H](CCC(=O)O)C(=O)N[C@@H](CCC(=O)O)C(=O)N[C@H](C(=O)N[C@@H](CC(C)C)C(=O)N[C@@H](CCSC)C(=O)N[C@@]1(C)CCCC=CCCC[C@@](C)(C(=O)N[C@@H](CCSC)C(=O)NCC(=O)N[C@@H](CC(C)C)C(=O)N[C@@H](CC(=O)O)C(=O)N[C@@H](CCCNC(=N)N)C(=O)N[C@H](C(=O)N[C@@H](CCCCN)C(=O)N[C@@H](CCC(=O)O)C(=O)N[C@@H](CC(C)C)C(=O)N2CCC[C@H]2C(=O)N[C@@H](CCC(=O)O)C(=O)N[C@@H](CC(C)C)C(=O)N[C@@H](Cc2c[nH]c3ccccc23)C(=O)N[C@@H](CC(C)C)C(N)=O)[C@@H](C)CC)NC(=O)[C@H]([C@@H](C)CC)NC(=O)[C@H](C(C)C)NC(=O)[C@H](CC(C)C)NC1=O)C(C)C [SP-86] (Ac-IDEEVLM[S5]LVI[S5]MGLDRIKELPELWL-NH2; staple 8-12) | 5 to 15 µM | ++++ (≥50: ++++) |
| CC[C@H](C)[C@H](NC(=O)[C@H](CCCNC(=N)N)NC(=O)[C@H](CC(=O)O)NC(=O)[C@H](CC(C)C)NC(=O)CNC(=O)[C@H](CCSC)NC(=O)[C@]1(C)CCCC=CCCC[C@](C)(NC(=O)[C@H](CCSC)NC(=O)[C@H](CC(C)C)NC(=O)[C@@H](NC(=O)[C@H](CCC(=O)O)NC(=O)[C@H](CCC(=O)O)NC(=O)[C@H](CC(=O)O)NC(C)=O)C(C)C)C(=O)N[C@@H](CC(C)C)C(=O)N[C@@H](C(C)C)C(=O)N[C@@H]([C@@H](C)CC)C(=O)N1)C(=O)N[C@@H](CCCCN)C(=O)N[C@@H](CCC(=O)O)C(=O)N[C@@H](CC(C)C)C(=O)N1CCC[C@H]1C(=O)N[C@@H](CCC(=O)O)C(=O)N[C@@H](CC(C)C)C(=O)N[C@@H](Cc1c[nH]c2ccccc12)C(=O)N[C@@H](CC(C)C)C(N)=O [SP-87] (Ac-DEEVLM[S5]LVI[S5]MGLDRIKELPELWL-NH2; staple 7-11) | 15 to 30 µM | ++++ (≥50: ++++) |
| CCCC[C@H](NC(=O)[C@H](CCC(=O)O)NC(=O)[C@@H](NC(=O)[C@@H](NC(=O)[C@H](CC(C)C)NC(=O)[C@]1(C)CCCC=CCCC[C@](C)(NC(=O)[C@H](CCC(=O)O)NC(=O)[C@H](CC(=O)O)NC(=O)[C@@H](NC(=O)[C@H](Cc2ccccc2)NC(C)=O)[C@@H](C)CC)C(=O)N[C@@H](C(C)C)C(=O)N[C@@H](CC(C)C)C(=O)N[C@@H](CCCC)C(=O)N1)C(C)C)[C@@H](C)CC)C(=O)N[C@@H](C)C(=O)N[C@@H](CC(C)C)C(=O)N[C@@H](CC(=O)O)C(=O)N[C@@H](CCCNC(=N)N)C(=O)N[C@H](C(=O)N[C@@H](CCCCN)C(=O)N[C@@H](CCC(=O)O)C(=O)N[C@@H](CC(C)C)C(=O)N1CCC[C@H]1C(=O)N[C@@H](CCC(=O)O)C(=O)N[C@@H](CC(C)C)C(=O)N[C@@H](Cc1c[nH]c2ccccc12)C(=O)N[C@@H](CC(C)C)C(N)=O)[C@@H](C)CC [SP-106] (Ac-FIDE[S5]VL[Nle][S5]LVIE[Nle]ALDRIKELPELWL-NH2; staple 5-9) | > 30 µM | – |

Now from value to compound, other results behind:

| EC50 | SMILES | 18 h Avg % max inhibition at top conc (HIF Rptr-24 hrs normoxia) (μM) |
| --- | --- | --- |
| > 30 µM | CCCC[C@H](NC(=O)[C@H](CC(C)C)NC(=O)[C@@H](NC(=O)[C@H](CCC(=O)O)NC(=O)[C@H](CCC(=O)O)NC(=O)[C@H](CC(=O)O)NC(=O)[C@@H](NC(=O)[C@H](Cc1ccccc1)NC(C)=O)[C@@H](C)CC)C(C)C)C(=O)N[C@@]1(C)CCCC=CCCC[C@@](C)(C(=O)N[C@@H](CCCC)C(=O)N[C@@H](C)C(=O)N[C@@H](CC(C)C)C(=O)N[C@@H](CC(=O)O)C(=O)N[C@@H](CCCNC(=N)N)C(=O)N[C@H](C(N)=O)[C@@H](C)CC)NC(=O)[C@H](CN)NC(=O)[C@H](C(C)C)NC(=O)[C@H](CC(C)C)NC1=O [SP-65] (Ac-FIDEEVL[Nle][S5]LV[Dap][S5][Nle]ALDRI-NH2; staple 9-13) | + (<10: +) |
| > 30 µM | CCCC[C@H](NC(=O)[C@H](CC(C)C)NC(=O)[C@@H](NC(=O)[C@H](CCC(=O)O)NC(=O)[C@H](CCC(=O)O)NC(=O)[C@H](CC(=O)O)NC(=O)[C@@H](NC(=O)[C@H](Cc1ccccc1)NC(C)=O)[C@@H](C)CC)C(C)C)C(=O)N[C@@]1(C)CCCC=CCCC[C@@](C)(C(=O)N[C@@H](CN)C(=O)N[C@@H](C)C(=O)N[C@@H](CC(C)C)C(=O)N[C@@H](CC(=O)O)C(=O)N[C@@H](CCCNC(=N)N)C(=O)N[C@H](C(N)=O)[C@@H](C)CC)NC(=O)[C@H]([C@@H](C)CC)NC(=O)[C@H](C(C)C)NC(=O)[C@H](CC(C)C)NC1=O [SP-66] (Ac-FIDEEVL[Nle][S5]LVI[S5][Dap]ALDRI-NH2; staple 9-13) | ++ (≤10 but <25: ++) |
| 5 to 15 µM | CCCC[C@H](NC(=O)[C@H](CC(C)C)NC(=O)[C@@H](NC(=O)[C@H](CCC(N)=O)NC(=O)[C@H](CCC(=O)O)NC(=O)[C@H](CC(=O)O)NC(=O)[C@@H](NC(=O)[C@H](Cc1ccccc1)NC(C)=O)[C@@H](C)CC)C(C)C)C(=O)N[C@@]1(C)CCCC=CCCC[C@@](C)(C(=O)N[C@@H](CCCC)C(=O)N[C@@H](C)C(=O)N[C@@H](CC(C)C)C(=O)N[C@@H](CC(=O)O)C(=O)N[C@@H](CCCNC(=N)N)C(=O)N[C@H](C(N)=O)[C@@H](C)CC)NC(=O)[C@H]([C@@H](C)CC)NC(=O)[C@H](C(C)C)NC(=O)[C@H](CC(C)C)NC1=O [SP-69] (Ac-FIDEQVL[Nle][S5]LVI[S5][Nle]ALDRI-NH2; staple 9-13) | ++++ (≥50: ++++) |
| 5 to 15 µM | CC[C@H](C)[C@H](NC(=O)[C@H](CCCNC(=N)N)NC(=O)[C@H](CC(=O)O)NC(=O)[C@H](CC(C)C)NC(=O)[C@H](C)NC(=O)[C@H](C)NC(=O)[C@]1(C)CCCC=CCCC[C@](C)(NC(=O)[C@H](C)NC(=O)[C@H](CC(C)C)NC(=O)[C@@H](NC(=O)[C@H](CCC(N)=O)NC(=O)[C@H](CCC(=O)O)NC(=O)[C@H](CC(=O)O)NC(=O)[C@@H](NC(=O)[C@H](Cc2ccccc2)NC(C)=O)[C@@H](C)CC)C(C)C)C(=O)N[C@@H](CC(C)C)C(=O)N[C@@H](C(C)C)C(=O)N[C@@H]([C@@H](C)CC)C(=O)N1)C(N)=O [SP-70] (Ac-FIDEQVLA[S5]LVI[S5]AALDRI-NH2; staple 9-13) | +++ (≤25 but <50: +++) |
| 5 to 15 µM | CC[C@H](C)[C@H](NC(=O)[C@H](CCCNC(=N)N)NC(=O)[C@H](CC(=O)O)NC(=O)[C@H](CC(C)C)NC(=O)CNC(=O)[C@H](CCSC)NC(=O)[C@]1(C)CCCC=CCCC[C@](C)(NC(=O)[C@H](CCSC)NC(=O)[C@H](CC(C)C)NC(=O)[C@@H](NC(=O)[C@H](CCC(=O)O)NC(C)=O)C(C)C)C(=O)N[C@@H](CC(C)C)C(=O)N[C@@H](C(C)C)C(=O)N[C@@H]([C@@H](C)CC)C(=O)N1)C(=O)N[C@@H](CCCCN)C(=O)N[C@@H](CCC(=O)O)C(=O)N[C@@H](CC(C)C)C(=O)N1CCC[C@H]1C(=O)N[C@@H](CCC(=O)O)C(=O)N[C@@H](CC(C)C)C(=O)N[C@@H](Cc1c[nH]c2ccccc12)C(=O)N[C@@H](CC(C)C)C(N)=O [SP-89] (Ac-EVLM[S5]LVI[S5]MGLDRIKELPELWL-NH2; staple 5-9) | +++ (≤25 but <50: +++) |
